In patent US20120115724A1, “METHOD OF CONTROLLING UNDESIRED VEGETATION” (SYNGENTA CROP PROTECTION LLC, priority 2009, published 2012):

Legend:
Type in all cases: in vivo
IPOHE Ipomoea hederacea = test: Post-emergence crop and weed test (Example 15); settings: 360 h, after 15 days, read-out: Percentage damage IPOHE
Procedure, shortened: (§1)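 Scoring: percent damage at 15 days after treatment, where 100 means total damage and 0 no damage. Treatment was a foliar spray of 14-day-old potted plants, using active ingredient diluted from a 5% acetone-based emulsifiable stock into water containing 0.2% X-77 adjuvant.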

KCHSC Kochia scoparia = test: Post-emergence crop and weed test (Example 15); settings: Bassia scoparia, 360 h, after 15 days, read-out: Percentage damage KCHSC
Procedure, shortened: as §1

SIDSP Sida spinosa = test: Post-emergence crop and weed test (Example 15); settings: 360 h, after 15 days, read-out: Percentage damage SIDSP
Procedure, shortened: as §1

[1] = system: EPHHL Euphorbia heterophylla; test: Post-emergence crop and weed test (Example 15); settings: 360 h, after 15 days, read-out: Percentage damage EPHHL
Procedure, shortened: as §1

[2] = system: ABUTH Abutilon theophrasti; test: Post-emergence crop and weed test (Example 15); settings: 360 h, after 15 days, read-out: Percentage damage ABUTH
Procedure, shortened: as §1

[3] = system: XANST Xanthium strumarium; test: Post-emergence crop and weed test (Example 15); settings: 360 h, after 15 days, read-out: Percentage damage XANST
Procedure, shortened: as §1

GLXMA Soybean = test: Post-emergence crop and weed test (Example 15); settings: Glycine max, 360 h, after 15 days, read-out: Percentage damage GLXMA
Procedure, shortened: as §1

[4] = system: Ipomea hederaceae (IPOHE); test: Post-emergence biological efficacy (Example 14); settings: Ipomoea hederacea, 312 h; post-emergence, 1,000 g/ha, after 13 days; read-out: Percentage damage IPOHE
Procedure, shortened: (§2)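 Eight-day-old potted plants received 250 or 1000 g/ha by foliar spray, then grew on at 24/16 °C day/night with twice-daily watering. Injury was rated 13 days later, where 0 means no damage and 100 means complete damage.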

[5] = system: Alopecurus myosuroides (ALOMY); test: Post-emergence biological efficacy (Example 14); settings: Alopecurus myosuroides, 312 h; post-emergence, 1,000 g/ha, after 13 days; read-out: Percentage damage ALOMY
Procedure, shortened: as §2

[6] = system: Echinochloa crus-galli (ECHCG); test: Post-emergence biological efficacy (Example 14); settings: Echinochloa crus-galli, 312 h; post-emergence, 1,000 g/ha, after 13 days; read-out: Percentage damage ECHCG
Procedure, shortened: as §2

Solanum nigrum (SOLNI) [7] = test: Post-emergence biological efficacy (Example 14); settings: Solanum nigrum, 312 h; post-emergence, 1,000 g/ha, after 13 days; read-out: Percentage damage SOLNI
Procedure, shortened: as §2

Setaria faberi (SETFA) [8] = test: Post-emergence biological efficacy (Example 14); settings: Setaria faberi, 312 h; post-emergence, 1,000 g/ha, after 13 days; read-out: Percentage damage SETFA
Procedure, shortened: as §2

[9] = system: Amaranthus retroflexus (AMARE); test: Post-emergence biological efficacy (Example 14); settings: Amaranthus retroflexus, 312 h; post-emergence, 1,000 g/ha, after 13 days; read-out: Percentage damage AMARE
Procedure, shortened: as §2

[10] = system: Ipomea hederaceae (IPOHE); test: Pre-emergence biological efficacy (Example 13); settings: Ipomoea hederacea, 312 h; pre-emergence, 1,000 g/ha, after 13 days; read-out: Percentage damage IPOHE
Procedure, shortened: (§3)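 Glasshouse pot test (24/16 °C day/night, 14 h photoperiod, 65% humidity): sowing, one-day cultivation, then spraying at a dose of 250 or 1000 g/ha. Visual damage scored 0–100 after 13 days.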

[11] = system: Alopecurus myosuroides (ALOMY); test: Pre-emergence biological efficacy (Example 13); settings: Alopecurus myosuroides, 312 h; pre-emergence, 1,000 g/ha, after 13 days; read-out: Percentage damage ALOMY
Procedure, shortened: as §3

[12] = system: Echinochloa crus-galli (ECHCG); test: Pre-emergence biological efficacy (Example 13); settings: Echinochloa crus-galli, 312 h; pre-emergence, 1,000 g/ha, after 13 days; read-out: Percentage damage ECHCG
Procedure, shortened: as §3

Solanum nigrum (SOLNI) [13] = test: Pre-emergence biological efficacy (Example 13); settings: Solanum nigrum, 312 h; pre-emergence, 1,000 g/ha, after 13 days; read-out: Percentage damage SOLNI
Procedure, shortened: as §3

Setaria faberi (SETFA) [14] = test: Pre-emergence biological efficacy (Example 13); settings: Setaria faberi, 312 h; pre-emergence, 1,000 g/ha, after 13 days; read-out: Percentage damage SETFA
Procedure, shortened: as §3

[15] = system: Amaranthus retroflexus (AMARE); test: Pre-emergence biological efficacy (Example 13); settings: Amaranthus retroflexus, 312 h; pre-emergence, 1,000 g/ha, after 13 days; read-out: Percentage damage AMARE
Procedure, shortened: as §3

Row | SMILES | pest or weed control at 1000 g/ha [4] | pest or weed control at 1000 g/ha [5] | pest or weed control at 1000 g/ha [6] | pest or weed control at 1000 g/ha (Solanum nigrum (SOLNI) [7]) | pest or weed control at 1000 g/ha (Setaria faberi (SETFA) [8]) | pest or weed control at 1000 g/ha [9] | pest or weed control at 1000 g/ha [10] | pest or weed control at 1000 g/ha [11] | pest or weed control at 1000 g/ha [12] | pest or weed control at 1000 g/ha (Solanum nigrum (SOLNI) [13]) | pest or weed control at 1000 g/ha (Setaria faberi (SETFA) [14]) | pest or weed control at 1000 g/ha [15] | also measured
1 | C/C=C/c1c(N)nc(-c2ccc(Cl)c(OC)c2F)nc1C(=O)OC [Compound 3, (E)-4-Amino-2-(4-chloro-2-fluoro-3-methoxy-phenyl)-6-methoxy-carbonyl-5-(prop-1-enyl)-pyrimidine] | 90% | 90% | 100% | 100% | 100% | 100% | 90% | 90% | 90% | 80% | 80% | 50% | pest or weed control at 125 g/ha (IPOHE Ipomoea hederacea; 125 g/ha): 80%; pest or weed control at 125 g/ha (KCHSC Kochia scoparia; 125 g/ha): 80%; pest or weed control at 125 g/ha (SIDSP Sida spinosa; 125 g/ha): 80%; pest or weed control at 125 g/ha ([1]; 125 g/ha): 90%; pest or weed control at 125 g/ha ([2]; 125 g/ha): 80%; pest or weed control at 125 g/ha ([3]; 125 g/ha): 80%; plant injury at 125 g/ha (GLXMA Soybean; 125 g/ha): 0%
2 | C/C=C\c1c(N)nc(-c2ccc(Cl)c(OC)c2F)nc1C(=O)OC [Compound 4, (Z)-4-Amino-2-(4-chloro-2-fluoro-3-methoxy-phenyl)-6-methoxy-carbonyl-5-(prop-1-enyl)-pyrimidine] | 100% | 70% | 80% | 80% | 90% | 100% | 100% | 80% | 90% | 100% | 80% | 100% | pest or weed control at 8 g/ha (IPOHE Ipomoea hederacea; 8 g/ha): 70%; pest or weed control at 8 g/ha (KCHSC Kochia scoparia; 8 g/ha): 30%; pest or weed control at 8 g/ha (SIDSP Sida spinosa; 8 g/ha): 50%; pest or weed control at 8 g/ha ([1]; 8 g/ha): 90%; pest or weed control at 8 g/ha ([2]; 8 g/ha): 60%; pest or weed control at 8 g/ha ([3]; 8 g/ha): 90%; plant injury at 8 g/ha (GLXMA Soybean; 8 g/ha): 20%
3 | C/C=C\c1c(N)nc(-c2ccc(Cl)c(N(C)C)c2F)nc1C(=O)OC [Compound 5, (Z)-4-Amino-2-(4-chloro-3-dimethylamino-2-fluorophenyl)-6-methoxy-carbonyl-5-(prop-1-enyl)-pyrimidine] | 30% | 60% | 70% | 80% | 70% | 100% | 20% | 30% | 30% | 60% | 30% | 70% | pest or weed control at 30 g/ha (IPOHE Ipomoea hederacea; 30 g/ha): 0%; pest or weed control at 30 g/ha (KCHSC Kochia scoparia; 30 g/ha): 70%; pest or weed control at 30 g/ha (SIDSP Sida spinosa; 30 g/ha): 0%; pest or weed control at 30 g/ha ([1]; 30 g/ha): 60%; pest or weed control at 30 g/ha ([2]; 30 g/ha): 40%; pest or weed control at 30 g/ha ([3]; 30 g/ha): 70%; plant injury at 30 g/ha (GLXMA Soybean; 30 g/ha): 0%
